Measured values: patent US8883841B2, “Oncogenic ras-specific cytotoxic compound and methods of use thereof” (The Board of Regents of the University of Texas System, priority 2005, dated 2014)
Counter-ions that a name gives are not always drawn. Like-named read-outs stand apart in the source and are kept apart here.

Experiments:
[1] = tested on: T29 cells; test: cells; conditions: Homo sapiens, T29, read-out: IC50 in T29 cells
[2] = tested on: T29Kt1 cells; test: cells; conditions: Homo sapiens
[3] = tested on: H460 cells; test: cells; conditions: Homo sapiens
[4] = tested on: H226B cells; test: Cell viability, H226B lung cancer cells; assay type: cell-based, human; conditions: Homo sapiens, H226B, Lung, read-out: IC50 (−LogM) (converted)
[5] = tested on: A549CK8; test: Cell viability, A549CK8 lung cancer cells; assay type: cell-based, human; conditions: Homo sapiens; A549CK8, Lung; read-out: IC50 (−LogM) (converted)
[6] = tested on: Hct116; test: Cell viability, Hct116 colon cancer cells; assay type: cell-based, human; conditions: Homo sapiens, HCT-116; Hct116, Colon; read-out: IC50 (−LogM) (converted)
[7] = tested on: CT116P53; test: Cell viability, CT116P53 colon cancer cells; assay type: cell-based, human; conditions: Homo sapiens; CT116P53, Colon; read-out: IC50 (−LogM) (converted)
[8] = tested on: HKE3; test: Cell viability, HKE3 colon cancer cells; assay type: cell-based, human; conditions: Homo sapiens, HKE3, Colon, read-out: IC50 (−LogM) (converted)
[9] = tested on: AsPC-1; test: Cell viability, AsPC-1 pancreatic cancer cells; assay type: cell-based, human; conditions: Homo sapiens; ASPC1, Pancrease; read-out: IC50 (−LogM) (converted)
[10] = tested on: DLD1; test: Cell viability, DLD1 colon cancer cells; assay type: cell-based, human; conditions: Homo sapiens, DLD-1; DLD1, Colon; read-out: IC50 (−LogM) (converted)
[11] = tested on: Heb46; test: Cell viability, Heb46 kidney cells; assay type: cell-based
[12] = tested on: Heb44; test: Cell viability, Heb44 kidney cells; assay type: cell-based
[13] = tested on: Capanc-1; test: Cell viability, Capanc-1 pancreatic cancer cells; assay type: cell-based, human; conditions: Homo sapiens, Pancreatic cancer cell; capanc1, Pancrease; read-out: IC50 (−LogM) (converted)
[14] = tested on: Sw620; test: Cell viability, Sw620 colon cancer cells; assay type: cell-based, human; conditions: Homo sapiens, SW-620; Sw620, Colon; read-out: IC50 (−LogM) (converted)
[15] = tested on: miapac; test: Cell viability, miapac pancreatic cancer cells; assay type: cell-based, human; conditions: Homo sapiens, Pancreatic cancer cell; miapac, Pancrease; read-out: IC50 (−LogM) (converted)
[16] = tested on: H2122; test: Cell viability, H2122 lung cancer cells; assay type: cell-based, human; conditions: Homo sapiens, NCI-H2122; H2122, Lung; read-out: IC50 (−LogM) (converted)
[17] = tested on: H2009; test: Cell viability, H2009 lung cancer cells; assay type: cell-based, human; conditions: Homo sapiens, NCI-H2009; H2009, Lung; read-out: IC50 (−LogM) (converted)
[18] = tested on: H1933; test: Cell viability, H1933 lung cancer cells; assay type: cell-based, human; conditions: Homo sapiens; H1933, Lung; read-out: IC50 (−LogM) (converted)
[19] = tested on: H1395; test: Cell viability, H1395 lung cancer cells; assay type: cell-based, human; conditions: Homo sapiens, NCI-H1395; H1395, Lung; read-out: IC50 (−LogM) (converted)
[20] = tested on: H2087; test: Cell viability, H2087 lung cancer cells; assay type: cell-based, human; conditions: Homo sapiens, NCI-H2087; H2087, Lung; read-out: IC50 (−LogM) (converted)
[21] = tested on: Ovcar3; test: Cell viability, Ovcar3 ovary cancer cells; assay type: cell-based; conditions: Homo sapiens, OVCAR-3
[22] = tested on: Hey; test: Cell viability, Hey ovary cancer cells; assay type: cell-based
[23] = tested on: Ovca429; test: Cell viability, Ovca429 ovary cancer cells; assay type: cell-based
[24] = tested on: SKOV3; test: Cell viability, SKOV3 ovary cancer cells; assay type: cell-based; conditions: Homo sapiens, SK-OV-3
[25] = tested on: A549 cells; test: Cell viability, A549 lung cancer cells; assay type: cell-based, human; conditions: Homo sapiens; A549, Lung; read-out: IC50 (−LogM) (converted)
[26] = tested on: H322 cells; test: Cell viability, H322 lung cancer cells; assay type: cell-based, human; conditions: Homo sapiens, NCI-H322; H322, Lung; read-out: IC50 (−LogM) (converted)
[27] = tested on: H1299 cells; test: Cell viability, H1299 lung cancer cells; assay type: cell-based, human; conditions: Homo sapiens, NCI-H1299; h1299, Lung; read-out: IC50 (−LogM) (converted)
[28] = tested on: H23; test: Cell viability, H23 lung cancer cells; assay type: cell-based, human; conditions: Homo sapiens, NCI-H23; H23, Lung; read-out: IC50 (−LogM) (converted)
[29] = tested on: Ovcar443; test: Cell viability, Ovcar443 ovary cancer cells; assay type: cell-based
[30] = T29Kt1, read-out: IC50 in T29k cells, Table 1
[31] = NCI-H460, read-out: IC50 in H460 cells, Table 1
[32] = NCI-H460, read-out: IC50 (−LogM), H460, Lung (converted)

With CC(C)(C)OC(=O)C1=C(N)N(Cc2ccccc2)C2(C)C=CC(=O)C=C12 (centres unmarked) [Oncrasin K041, tert-butyl 2-amino-1-benzyl-7a-methyl-5-oxo-indole-3-carboxylate] the IC50 [1] was 5.01 µM and the IC50 [2, 30] was 5.01 µM.
With OCn1cc(Cc2cc(C(F)(F)F)cc(C(F)(F)F)c2)c2ccccc21 [Oncrasin K77] the IC50 [1] was 6.31 µM, the IC50 [2, 30] was 7.94 µM and the IC50 [3, 31] was 7.94 µM.
O=[N+]([O-])c1cccc(Cn2cc(CO)c3ccccc32)c1 [Oncrasin K69, 1H-Indole-3-methanol, 1-[(3-nitrophenyl)methyl]-] gave an IC50 ([4]; first H226B line) of 0.0316 µM, an IC50 ([4]; second H226B line) of 0.1 µM and an IC50 [5] of 1.26 µM. The IC50 [6] was 0.316 µM, the IC50 [7] was < 31.6 µM and the IC50 ([8]; first HKE3 line) was 0.0794 µM. For the same compound, the IC50 ([8]; second HKE3 line) was 1 µM, the IC50 [9] was 7.94 µM and the IC50 [10] was < 31.6 µM. The IC50 [11] was 0.316 µM, the IC50 [12] was 0.0794 µM and the IC50 [13] was 31.6 µM. For the same compound, the IC50 [14] was 31.6 µM, the IC50 [15] was < 31.6 µM and the IC50 [16] was 2 µM. For the same compound, the IC50 [17] was < 31.6 µM, the IC50 [18] was < 31.6 µM and the IC50 [19] was < 31.6 µM. For the same compound, the IC50 [20] was 31.6 µM, the IC50 [21] was 0.251 µM and the IC50 [22] was < 31.6 µM. For the same compound, the IC50 [23] was 31.6 µM, the IC50 [24] was 3.16 µM and the IC50 [2, 30] was 0.398 µM. It also gave an IC50 [3, 32] of 0.0398 µM and an IC50 [3, 31] of 0.0398 µM.
OCc1cn(Cc2ccc(Cl)c(Cl)c2)c2ccccc12 [Oncrasin K049, [1-(3,4-dichlorobenzyl)-1H-indol-3-yl]methanol] was tested, and the IC50 ([4]; first H226B line) was 0.00251 µM, the IC50 ([4]; second H226B line) was 0.00316 µM and the IC50 [25] was 10 µM. The IC50 [5] was 6.31 µM, the IC50 [6] was 0.01 µM and the IC50 [7] was < 31.6 µM. For the same compound, the IC50 ([8]; first HKE3 line) was 0.00251 µM, the IC50 ([8]; second HKE3 line) was 0.00316 µM and the IC50 [26] was 10 µM. For the same compound, the IC50 [27] was 10 µM, the IC50 [9] was 10 µM and the IC50 [10] was < 31.6 µM. It also gave an IC50 [11] of 0.0316 µM, an IC50 [12] of 0.01 µM and an IC50 [13] of 12.6 µM. The IC50 [15] was < 31.6 µM, the IC50 [16] was 0.316 µM and the IC50 [17] was 10 µM. It also gave an IC50 [28] of 15.8 µM, an IC50 [18] of 100 µM and an IC50 [19] of 15.8 µM. For the same compound, the IC50 [20] was 7.94 µM, the IC50 [21] was 0.01 µM and the IC50 [29] was 10 µM. The IC50 [23] was 7.94 µM, the IC50 [24] was 3.16 µM and the IC50 [2, 30] was 0.316 µM. It also gave an IC50 [3, 32] of 0.0316 µM and an IC50 [3, 31] of 0.0316 µM.
With OCc1cn(Cc2ccccc2Cl)c2ccccc12 [Oncrasin K006, [1-(2-chlorobenzyl)-1H-indol-3-yl]methanol] the IC50 ([4]; first H226B line) was 0.00251 µM, the IC50 ([4]; second H226B line) was 0.0398 µM and the IC50 [25] was 12.6 µM. The IC50 [5] was 3.98 µM, the IC50 [6] was 0.501 µM and the IC50 [7] was < 31.6 µM. For the same compound, the IC50 ([8]; first HKE3 line) was 0.126 µM, the IC50 ([8]; second HKE3 line) was 0.251 µM and the IC50 [26] was 31.6 µM. The IC50 [27] was 10 µM, the IC50 [9] was 3.98 µM and the IC50 [10] was < 31.6 µM. It also gave an IC50 [11] of 2 µM, an IC50 [12] of 0.01 µM and an IC50 [13] of 12.6 µM. For the same compound, the IC50 [14] was 10 µM, the IC50 [15] was < 31.6 µM and the IC50 [16] was 3.98 µM. It also gave an IC50 [17] of 31.6 µM, an IC50 [28] of 25.1 µM and an IC50 [18] of 15.8 µM. For the same compound, the IC50 [19] was 31.6 µM, the IC50 [20] was 25.1 µM and the IC50 [21] was 0.631 µM. For the same compound, the IC50 [29] was 7.94 µM, the IC50 [22] was 31.6 µM and the IC50 [23] was 10 µM. The IC50 [24] was 3.98 µM, the IC50 [2, 30] was 2.51 µM and the IC50 [3, 32] was 0.1 µM. The IC50 [3, 31] was 0.1 µM.
COC(=O)c1c(C)n(Cc2cccc3ccccc23)c2ccc(O)cc12 [Oncrasin K011, methyl 5-hydroxy-2-methyl-1-(1-naphthylmethyl)-1H-indole-3-carboxylate] showed an IC50 [1] of 3.16 µM, an IC50 [2, 30] of 3.16 µM and an IC50 [3, 31] of 1.58 µM.
With COc1ccc2c(c1)c(CCN)c(C)n2Cc1ccccc1 [Oncrasin K005, [2-(1-benzyl-5-methoxy-2-methyl-1H-indol-3-yl)ethyl]amine hydrochloride] the IC50 [1] was 15.8 µM, the IC50 ([2]; T29Kt1, read-out: IC50 in T29k cells) was 15.8 µM and the IC50 ([3]; NCI-H460, read-out: IC50 in H460 cells) was 6.31 µM.
Work on Cc1ccc(Cn2cc(C=O)c3ccccc32)cc1 [Oncrasin K66, 1H-Indole-3-carboxaldehyde, 1-[(4-methylphenyl)methyl]-] yielded an IC50 [1] of 31.6 µM, an IC50 [2, 30] of 3.98 µM and an IC50 [3, 31] of 0.0631 µM.
O=Cc1cn(Cc2cc(C(F)(F)F)cc(C(F)(F)F)c2)c2ccccc12 [Oncrasin K76] gave an IC50 [1] of 6.31 µM, an IC50 [2, 30] of 3.98 µM and an IC50 [3, 31] of 1.26 µM.
Work on O=[N+]([O-])c1ccc(Cn2cc(CO)c3ccccc32)cc1 [Oncrasin K71, 1H-Indole-3-methanol, 1-[(4-nitrophenyl)methyl]-] yielded an IC50 ([4]; first H226B line) of 0.316 µM, an IC50 ([4]; second H226B line) of 1.58 µM and an IC50 [5] of 7.94 µM. The IC50 [6] was 3.16 µM, the IC50 [7] was < 31.6 µM and the IC50 ([8]; first HKE3 line) was 0.398 µM. It also gave an IC50 ([8]; second HKE3 line) of 0.2 µM, an IC50 [27] of 10 µM and an IC50 [9] of 10 µM. For the same compound, the IC50 [10] was < 31.6 µM, the IC50 [11] was 3.98 µM and the IC50 [12] was 0.158 µM. The IC50 [13] was 0.126 µM, the IC50 [14] was 31.6 µM and the IC50 [15] was < 31.6 µM. The IC50 [16] was 3.16 µM, the IC50 [17] was < 31.6 µM and the IC50 [28] was 31.6 µM. For the same compound, the IC50 [18] was 31.6 µM, the IC50 [19] was < 31.6 µM and the IC50 [21] was 2.51 µM. The IC50 [22] was 31.6 µM, the IC50 [2, 30] was 0.158 µM and the IC50 [3, 32] was 0.0794 µM. For the same compound, the IC50 [3, 31] was 0.0794 µM.
